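At the GI50, growth is halved. TGI: concentration producing complete growth inhibition.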
Key:
Test in all cases: growth of human tumour cells (NCI), 384-well format
[1] = system: MCF7 breast
[2] = system: M14 melanoma
[3] = system: HL-60(TB) leukemia
[4] = system: UACC-257 melanoma
[5] = system: HCT-15 colon
[6] = system: TK-10 renal
[7] = system: 786-0 renal
[8] = system: HCT-116 colon
[9] = system: COLO 205 colon
[10] = system: SF-539 CNS
[11] = system: HOP-62 NSCLC
[12] = system: KM12 colon
[13] = system: SK-MEL-28 melanoma
[14] = system: NCI-H460 NSCLC
[15] = system: A549 NSCLC
[16] = system: SF-295 CNS
[17] = system: NCI-H522 lung
[18] = system: U251 glioblastoma
[19] = system: SK-MEL-2 melanoma
[20] = system: SNB-19 CNS
[21] = system: NCI-H322M lung
[22] = system: RPMI-8226 leukemia
[23] = system: UACC-62 melanoma
[24] = system: EKVX NSCLC
[25] = system: MDA-MB-435 melanoma
[26] = system: A498 renal
[27] = system: BT-549 breast
[28] = system: SF-268 CNS
[29] = system: OVCAR-4 ovarian
[30] = system: NCI-H226 lung
[31] = system: SK-OV-3 ovarian
[32] = system: IGROV1 ovarian
[33] = system: HS 578T breast
[34] = system: CCRF-CEM leukemia
[35] = system: MALME-3M melanoma
[36] = system: SW-620 colon
[37] = system: MDA-MB-468 breast
[38] = system: NCI-H23 lung
[39] = system: DU-145 prostate
[40] = system: CAKI-1 renal
[41] = system: SN12C renal
[42] = system: LOX IMVI melanoma
[43] = system: PC-3 prostate
[44] = system: RXF 393 renal
[45] = system: HCC-2998 colon
[46] = system: OVCAR-8 ovarian
[47] = system: K-562 leukemia
[48] = system: NCI/ADR-RES ovarian
[49] = system: OVCAR-3 ovarian
[50] = system: SNB-75 CNS
[51] = system: HT29 colon
[52] = system: SK-MEL-5 melanoma
[53] = system: MOLT-4 leukemia
[54] = system: ACHN renal
[55] = system: HOP-92 NSCLC

CCOC(=O)c1cc(/C=C/c2ccc(Cl)cc2Cl)on1 showed a GI50 [1] of 662 nM, a TGI [1] of 2810 nM and a GI50 [2] of 3270 nM. The TGI [2] was 8820 nM, the GI50 [3] was 818 nM and the TGI [3] was 2040 nM. It also gave a GI50 [4] of 2950 nM, a TGI [4] of 5650 nM and a GI50 [5] of 1360 nM. The TGI [5] was 4340 nM, the GI50 [6] was 2370 nM and the TGI [6] was 4710 nM. It also gave a GI50 [7] of 1840 nM, a TGI [7] of 3350 nM and a GI50 [8] of 740 nM. For the same compound, the TGI [8] was 2040 nM, the GI50 [9] was 2720 nM and the TGI [9] was 6540 nM. The GI50 [10] was 945 nM, the TGI [10] was 2190 nM and the GI50 [11] was 469 nM. For the same compound, the TGI [11] was 2830 nM, the GI50 [12] was 932 nM and the TGI [12] was 3930 nM. It also gave a GI50 [13] of 2420 nM, a TGI [13] of 4390 nM and a GI50 [14] of 1220 nM. The TGI [14] was 2590 nM, the GI50 [15] was 2440 nM and the TGI [15] was 6100 nM. It also gave a GI50 [16] of 2470 nM, a TGI [16] of 5300 nM and a GI50 [17] of 2020 nM. The TGI [17] was 3510 nM, the GI50 [18] was 1270 nM and the TGI [18] was 3300 nM. For the same compound, the GI50 [19] was 2120 nM, the TGI [19] was 4350 nM and the GI50 [20] was 3100 nM. For the same compound, the TGI [20] was 8170 nM, the GI50 [21] was 4040 nM and the TGI [21] was 14100 nM. It also gave a GI50 [22] of 471 nM, a TGI [22] of 1250 nM and a GI50 [23] of 2080 nM. For the same compound, the TGI [23] was 4260 nM, the GI50 [24] was 2700 nM and the TGI [24] was 8840 nM. For the same compound, the GI50 [25] was 3410 nM, the TGI [25] was 11300 nM and the GI50 [26] was 1850 nM. For the same compound, the TGI [26] was 3330 nM, the GI50 [27] was 2110 nM and the TGI [27] was 4350 nM. For the same compound, the GI50 [28] was 4090 nM, the TGI [28] was 13500 nM and the GI50 [29] was 2630 nM. The TGI [29] was 7190 nM, the GI50 [30] was 1960 nM and the TGI [30] was 3830 nM. It also gave a GI50 [31] of 2010 nM, a TGI [31] of 4150 nM and a GI50 [32] of 2090 nM. It also gave a TGI [32] of 4340 nM, a GI50 [33] of 1970 nM and a TGI [33] of 3540 nM. It also gave a GI50 [34] of 1130 nM, a TGI [34] of 2370 nM and a GI50 [35] of 2390 nM. The TGI [35] was 4050 nM, the GI50 [36] was 1360 nM and the TGI [36] was 3020 nM. The GI50 [37] was 2280 nM, the TGI [37] was 3940 nM and the GI50 [38] was 2340 nM. The TGI [38] was 5290 nM, the GI50 [39] was 4460 nM and the TGI [39] was > 100000 nM. The GI50 [40] was 1770 nM, the TGI [40] was 3910 nM and the GI50 [41] was 1810 nM. It also gave a TGI [41] of 3320 nM, a GI50 [42] of 1910 nM and a TGI [42] of 3630 nM. The GI50 [43] was 1970 nM, the TGI [43] was 4050 nM and the GI50 [44] was 1990 nM. The TGI [44] was 3460 nM, the GI50 [45] was 1960 nM and the TGI [45] was 3970 nM. It also gave a GI50 [46] of 649 nM, a TGI [46] of 11000 nM and a GI50 [47] of 10700 nM. For the same compound, the TGI [47] was 30800 nM, the GI50 [48] was 1840 nM and the TGI [48] was 3300 nM. It also gave a GI50 [49] of 1850 nM, a TGI [49] of 3550 nM and a GI50 [50] of 3200 nM. The TGI [50] was 6120 nM, the GI50 [51] was 1920 nM and the TGI [51] was 4220 nM. For the same compound, the GI50 [52] was 1770 nM, the TGI [52] was 3530 nM and the GI50 [53] was 1030 nM. The TGI [53] was 2210 nM, the GI50 [54] was 1860 nM and the TGI [54] was 3390 nM.
In the case of CN(C)CCN(C)CC(C)(C)C(=O)/C=C/c1ccc(Cl)c(Cl)c1, the GI50 [1] is reported as 796 nM, the TGI [1] is reported as 2050 nM and the GI50 [2] is reported as 1690 nM. It also gave a TGI [2] of 3080 nM, a GI50 [3] of 161 nM and a TGI [3] of 309 nM. For the same compound, the GI50 [4] was 1450 nM, the TGI [4] was 2770 nM and the GI50 [5] was 1230 nM. It also gave a TGI [5] of 2530 nM, a GI50 [6] of 1440 nM and a TGI [6] of 2750 nM. It also gave a GI50 [7] of 1460 nM, a TGI [7] of 2790 nM and a GI50 [8] of 1270 nM. The TGI [8] was 2590 nM, the GI50 [9] was 1600 nM and the TGI [9] was 2980 nM. It also gave a GI50 [10] of 1340 nM, a TGI [10] of 2630 nM and a GI50 [11] of 1720 nM. The TGI [11] was 3100 nM, the GI50 [12] was 810 nM and the TGI [12] was 2060 nM. For the same compound, the GI50 [13] was 1890 nM, the TGI [13] was 3310 nM and the GI50 [14] was 1410 nM. It also gave a TGI [14] of 2780 nM, a GI50 [15] of 1720 nM and a TGI [15] of 3130 nM. The GI50 [16] was 1560 nM, the TGI [16] was 2940 nM and the GI50 [17] was 1330 nM. The TGI [17] was 2620 nM, the GI50 [18] was 1520 nM and the TGI [18] was 2870 nM. It also gave a GI50 [19] of 292 nM, a TGI [19] of 644 nM and a GI50 [20] of 1750 nM. It also gave a TGI [20] of 3170 nM, a GI50 [21] of 1310 nM and a TGI [21] of 2600 nM. The GI50 [22] was 319 nM, the TGI [22] was 667 nM and the GI50 [23] was 1410 nM. It also gave a TGI [23] of 2720 nM, a GI50 [24] of 1650 nM and a TGI [24] of 3080 nM. For the same compound, the GI50 [25] was 1360 nM, the TGI [25] was 2650 nM and the GI50 [26] was 1450 nM. For the same compound, the TGI [26] was 2770 nM, the GI50 [27] was 1680 nM and the TGI [27] was 3060 nM. It also gave a GI50 [28] of 1930 nM, a TGI [28] of 3350 nM and a GI50 [29] of 1510 nM. The TGI [29] was 2850 nM, the GI50 [30] was 1470 nM and the TGI [30] was 2790 nM. The GI50 [31] was 1280 nM, the TGI [31] was 2550 nM and the GI50 [32] was 1480 nM. For the same compound, the TGI [32] was 2810 nM, the GI50 [33] was 2000 nM and the TGI [33] was 3440 nM. For the same compound, the GI50 [34] was 216 nM, the TGI [34] was 479 nM and the GI50 [35] was 2050 nM. For the same compound, the TGI [35] was 3490 nM, the GI50 [36] was 1340 nM and the TGI [36] was 2650 nM. It also gave a GI50 [37] of 510 nM, a TGI [37] of 902 nM and a GI50 [38] of 1470 nM. For the same compound, the TGI [38] was 2840 nM, the GI50 [39] was 1600 nM and the TGI [39] was 3000 nM. For the same compound, the GI50 [40] was 1080 nM, the TGI [40] was 2290 nM and the GI50 [41] was 1320 nM. The TGI [41] was 2600 nM, the GI50 [42] was 1640 nM and the TGI [42] was 3020 nM. It also gave a GI50 [43] of 1510 nM, a TGI [43] of 2860 nM and a GI50 [44] of 1080 nM. The TGI [44] was 2270 nM, the GI50 [45] was 1500 nM and the TGI [45] was 2840 nM. It also gave a GI50 [46] of 1300 nM, a TGI [46] of 2590 nM and a GI50 [47] of 1820 nM. The TGI [47] was 3250 nM, the GI50 [48] was 1570 nM and the TGI [48] was 2920 nM. It also gave a GI50 [49] of 1350 nM, a TGI [49] of 2640 nM and a GI50 [55] of 1090 nM. It also gave a TGI [55] of 2290 nM, a GI50 [50] of 2020 nM and a TGI [50] of 3450 nM. It also gave a GI50 [51] of 1440 nM, a TGI [51] of 2990 nM and a GI50 [52] of 1190 nM. It also gave a TGI [52] of 2430 nM, a GI50 [53] of 215 nM and a TGI [53] of 459 nM. The GI50 [54] was 1570 nM and the TGI [54] was 2940 nM.
